Our source for the inhibition and IC50 values is ChEMBL document CHEMBL4373715, “Discovery and Biological Evaluations of Halogenated 2,4-Diphenyl Indeno[1,2-b]pyridinol Derivatives as Potent Topoisomerase IIα-Targeted Chemotherapeutic Agents for Breast Cancer” (J Med Chem, 2019).

Molecules are shown by their SMILES.

Assay [1] addresses DNA topoisomerase 2-alpha (Homo sapiens) (UniProt P11388). As to the kind of experiment: Inhibition of recombinant human topoisomerase 2alpha-mediated relaxation of supercoiled pBR322 DNA at 100 uM measured after 30 mins by ethidium bromide staining based agarose gel electrophoresis relative to control.
The next assay has as its system HCT-15. As to the kind of experiment: Antiproliferative activity against human HCT15 cells measured after 72 hrs by EZ-Cytox assay. The format is functional, cell-based. The note with it: HCT-15, 72 h.
The subject of a further assay is DU-145. As to the kind of experiment: Antiproliferative activity against human DU145 cells measured after 72 hrs by EZ-Cytox assay. The class given is functional, cell-based. As to conditions: DU-145, 72 h.
Assay [2] has as its target T1, DNA topoisomerase 1 (Homo sapiens) (UniProt P11387).
T1 sequence (whole entry): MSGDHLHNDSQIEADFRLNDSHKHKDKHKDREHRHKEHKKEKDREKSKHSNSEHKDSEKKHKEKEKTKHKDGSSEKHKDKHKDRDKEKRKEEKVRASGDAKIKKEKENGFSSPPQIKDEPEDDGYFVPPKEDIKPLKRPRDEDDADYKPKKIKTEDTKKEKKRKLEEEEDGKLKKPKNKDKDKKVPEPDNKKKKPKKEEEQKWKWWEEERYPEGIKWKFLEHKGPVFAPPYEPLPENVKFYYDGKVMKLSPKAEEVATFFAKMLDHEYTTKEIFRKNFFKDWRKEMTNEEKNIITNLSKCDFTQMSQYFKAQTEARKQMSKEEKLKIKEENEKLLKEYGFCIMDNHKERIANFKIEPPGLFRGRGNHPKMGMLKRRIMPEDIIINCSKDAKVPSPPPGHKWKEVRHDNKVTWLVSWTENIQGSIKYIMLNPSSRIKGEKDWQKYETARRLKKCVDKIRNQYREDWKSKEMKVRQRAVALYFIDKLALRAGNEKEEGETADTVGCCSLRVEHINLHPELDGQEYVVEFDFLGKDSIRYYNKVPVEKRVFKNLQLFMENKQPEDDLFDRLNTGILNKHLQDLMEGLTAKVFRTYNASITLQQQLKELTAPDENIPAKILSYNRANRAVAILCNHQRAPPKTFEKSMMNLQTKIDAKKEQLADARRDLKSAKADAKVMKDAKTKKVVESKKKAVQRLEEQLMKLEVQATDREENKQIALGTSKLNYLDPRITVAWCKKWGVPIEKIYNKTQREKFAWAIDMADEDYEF
As to the kind of experiment: Inhibition of recombinant human topoisomerase 1-mediated relaxation of supercoiled pBR322 DNA at 100 uM measured after 30 mins by ethidium bromide staining based agarose gel electrophoresis relative to control.

Assay [3] has as its target DNA topoisomerase 2-alpha (Homo sapiens) (UniProt P11388). In words: Inhibition of recombinant human topoisomerase 2alpha-mediated relaxation of supercoiled pBR322 DNA at 20 uM measured after 30 mins by ethidium bromide staining based agarose gel electrophoresis relative to control.
For a further assay, the system named is HeLa. In words: Antiproliferative activity against human HeLa cells measured after 72 hrs by EZ-Cytox assay. The format is functional, cell-based.
In a further assay the test system is T47D. In words: Antiproliferative activity against human T47D cells measured after 72 hrs by EZ-Cytox assay. The class given is functional, cell-based.

DNA topoisomerase 2-alpha (Homo sapiens), sequence (P11388 whole entry): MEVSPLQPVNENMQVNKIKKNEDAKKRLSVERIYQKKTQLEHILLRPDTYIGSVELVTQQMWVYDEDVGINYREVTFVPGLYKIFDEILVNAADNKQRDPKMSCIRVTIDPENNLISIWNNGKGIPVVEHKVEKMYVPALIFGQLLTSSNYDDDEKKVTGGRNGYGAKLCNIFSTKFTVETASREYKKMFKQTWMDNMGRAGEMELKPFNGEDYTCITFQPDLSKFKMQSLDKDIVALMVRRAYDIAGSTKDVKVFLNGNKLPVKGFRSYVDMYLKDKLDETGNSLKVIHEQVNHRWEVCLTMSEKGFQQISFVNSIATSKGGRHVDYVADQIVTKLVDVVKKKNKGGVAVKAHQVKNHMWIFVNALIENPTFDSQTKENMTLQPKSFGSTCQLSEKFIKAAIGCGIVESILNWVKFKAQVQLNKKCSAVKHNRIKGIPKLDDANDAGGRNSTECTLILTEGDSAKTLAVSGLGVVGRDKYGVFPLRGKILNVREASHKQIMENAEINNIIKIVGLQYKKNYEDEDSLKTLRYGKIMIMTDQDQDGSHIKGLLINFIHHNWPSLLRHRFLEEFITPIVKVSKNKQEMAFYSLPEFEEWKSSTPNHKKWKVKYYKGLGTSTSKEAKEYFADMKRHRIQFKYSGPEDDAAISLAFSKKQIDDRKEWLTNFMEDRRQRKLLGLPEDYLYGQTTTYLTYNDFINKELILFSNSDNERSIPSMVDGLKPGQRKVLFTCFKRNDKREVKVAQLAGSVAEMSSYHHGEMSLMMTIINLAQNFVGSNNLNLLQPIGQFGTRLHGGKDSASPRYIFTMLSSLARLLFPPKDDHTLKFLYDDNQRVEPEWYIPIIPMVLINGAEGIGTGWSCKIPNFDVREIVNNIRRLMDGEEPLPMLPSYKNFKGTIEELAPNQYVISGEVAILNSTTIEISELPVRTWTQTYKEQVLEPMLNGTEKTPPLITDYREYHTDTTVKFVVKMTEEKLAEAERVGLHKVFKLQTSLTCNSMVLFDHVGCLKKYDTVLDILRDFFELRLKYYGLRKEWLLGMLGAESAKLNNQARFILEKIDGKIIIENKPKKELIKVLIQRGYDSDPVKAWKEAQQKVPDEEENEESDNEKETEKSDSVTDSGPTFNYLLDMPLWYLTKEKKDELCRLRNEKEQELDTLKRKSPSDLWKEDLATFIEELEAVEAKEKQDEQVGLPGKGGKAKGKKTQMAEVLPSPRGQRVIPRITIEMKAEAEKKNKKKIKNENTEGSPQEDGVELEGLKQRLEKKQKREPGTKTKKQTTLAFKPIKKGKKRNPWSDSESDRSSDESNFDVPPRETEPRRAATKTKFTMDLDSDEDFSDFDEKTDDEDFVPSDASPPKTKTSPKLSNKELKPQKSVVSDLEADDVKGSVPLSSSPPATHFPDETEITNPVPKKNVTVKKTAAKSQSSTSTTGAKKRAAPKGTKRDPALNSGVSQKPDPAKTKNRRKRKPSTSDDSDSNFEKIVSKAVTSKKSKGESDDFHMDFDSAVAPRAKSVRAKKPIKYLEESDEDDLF

As to `Oc1cccc(-c2cc(-c3ccccc3C(F)(F)F)nc3c2Cc2cccc(O)c2-3)c1`, the inhibition (commonly the relative decrease from the control value, in per cent) was determined as 65.2% in assay [1], 15.9% in assay [2] and 3.3% in assay [3]. In addition, the IC50 – broadly, the concentration that inhibits the measured activity by half – in the assay with HCT-15 turned out to be 2100 nM; with DU-145 it was 1140 nM; in the assay with HeLa, 4690 nM; in the assay with T47D, 1750 nM.

Consider `Oc1ccc(-c2cc(-c3ccc(F)cc3)nc3c2Cc2c(O)cccc2-3)cc1`, for which the inhibition in assay [1] was found to be 50.8%; in assay [2] it was 14.7%; in assay [3] it was 3.6%. Further, the IC50 in the assay on HCT-15 is 2230 nM; in the assay on DU-145, 1840 nM; with HeLa, 4880 nM; with T47D, 1370 nM.

Turning to `Oc1ccc(-c2cc(-c3cccc(Cl)c3)c3c(n2)-c2cc(O)ccc2C3)cc1`, the inhibition was found to be 73.6% in assay [1], 8.8% in assay [2] and 1.2% in assay [3]. In addition, the IC50 with HCT-15 came to 7590 nM; in the assay on DU-145, 2100 nM; with HeLa, 8060 nM; with T47D, 2760 nM.

For the molecule `Oc1cccc(-c2cc(-c3ccccc3Cl)nc3c2Cc2cc(O)ccc2-3)c1`, the results for the inhibition in assay [1], in assay [2] and in assay [3] were 100%, 5.6% and 32.3%, respectively. Also, the IC50 worked out at 1.33 nM with HCT-15, 810 nM in the assay on DU-145, 910 nM in the assay on HeLa and 780 nM in the assay on T47D.

On to `Oc1ccc(-c2cc(-c3ccc(Cl)cc3)c3c(n2)-c2cccc(O)c2C3)cc1`, for which the inhibition in assay [1] turned out to be 97%; in assay [2], 1.3%; in assay [3], 7.5%. Also, the IC50 in the assay on HCT-15 is 9100 nM; in the assay on DU-145, 1810 nM; in the assay with HeLa, 18300 nM; with T47D, 12800 nM.

For `Oc1ccc2c(c1)-c1nc(-c3ccccc3)cc(-c3ccccc3O)c1C2`, the inhibition in assay [1] came out at 97.4%; in assay [2] it was 0%; in assay [3] it was 0%. Further, the IC50 in the assay with HCT-15 is 3010 nM; with DU-145 it was 150 nM; in the assay with HeLa, 3740 nM; with T47D, 2330 nM.

On to `Oc1ccccc1-c1cc(-c2cccc(C(F)(F)F)c2)nc2c1Cc1cccc(O)c1-2`, for which the figures for the inhibition in assay [1], in assay [2] and in assay [3] were 95.8%, 2.7% and 4.3%, respectively. Besides, the IC50 stood at 2840 nM in the assay with HCT-15, 3380 nM with DU-145, 5730 nM in the assay with HeLa and 980 nM with T47D.

Consider `Oc1cccc(-c2cc(-c3ccccc3C(F)(F)F)nc3c2Cc2ccc(O)cc2-3)c1`, for which the inhibition was 79% in assay [1], 1.8% in assay [2] and 3.1% in assay [3]. In addition, the IC50 stood at 1670 nM in the assay with HCT-15, 1830 nM with DU-145, 3710 nM with HeLa and 1220 nM in the assay on T47D.

Turning to `Oc1ccc(-c2cc(-c3ccc(Cl)cc3)c3c(n2)-c2cc(O)ccc2C3)cc1`, the values for the inhibition in assay [1], in assay [2] and in assay [3] were 95.3%, 14.2% and 10.8%, respectively. For the same molecule, the IC50 came out at 12000 nM with HCT-15, 1740 nM with DU-145, 10000 nM in the assay with HeLa and 2670 nM with T47D.

Turning to `Oc1ccc(-c2cc(-c3ccc(Cl)cc3)nc3c2Cc2ccc(O)cc2-3)cc1`, the inhibition is 74.5% in assay [1], 0% in assay [2] and 0% in assay [3]. Further, the IC50 is 3220 nM with HCT-15, 2250 nM with DU-145, 1730 nM with HeLa and 1150 nM with T47D.

For `Oc1ccccc1-c1cc(-c2ccc(F)cc2)nc2c1Cc1cccc(O)c1-2`, the inhibition amounted to 34.4% in assay [1], 0% in assay [2] and 0% in assay [3]. For the same molecule, the IC50 worked out at 2070 nM in the assay on HCT-15, 1400 nM with DU-145, 3080 nM in the assay with HeLa and 740 nM with T47D.

As for `Oc1cccc(-c2cc(-c3cccc(F)c3)nc3c2Cc2cc(O)ccc2-3)c1`, the inhibition was determined as 66.2% in assay [1], 17.5% in assay [2] and 0% in assay [3]. Also, the IC50 was 2710 nM with HCT-15, 1410 nM with DU-145, 3850 nM in the assay on HeLa and 790 nM in the assay on T47D.

Consider `Oc1ccc(-c2cc(-c3ccccc3Cl)nc3c2Cc2cccc(O)c2-3)cc1`, for which the inhibition in assay [1] stood at 30.3%; in assay [2] it was 0%; in assay [3], 3.6%. Besides, the IC50 with HCT-15 was found to be 2970 nM; in the assay with DU-145 it was 190 nM; in the assay on HeLa it was 2850 nM; in the assay with T47D, 610 nM.

For the molecule `Oc1cccc(-c2cc(-c3ccccc3Cl)c3c(n2)-c2cccc(O)c2C3)c1`, the inhibition in assay [1] is 67.5%; in assay [2], 28.1%; in assay [3], 11.4%. Moreover, the IC50 with HCT-15 amounted to 8280 nM; with DU-145, 5630 nM; in the assay on HeLa, 7360 nM; in the assay on T47D, 2880 nM.

For `Oc1ccc(-c2cc(-c3cccc(Cl)c3)nc3c2Cc2ccc(O)cc2-3)cc1`, the results for the inhibition in assay [1], in assay [2] and in assay [3] were 71.3%, 8.7% and 56.4%, respectively. Moreover, the IC50 in the assay on HCT-15 is 2360 nM; in the assay on DU-145, 480 nM; in the assay with HeLa it was over 50000 nM; with T47D, 600 nM.

On to `Oc1ccc(-c2cc(-c3cccc(Cl)c3)nc3c2Cc2cc(O)ccc2-3)cc1`, for which the inhibition in assay [1] stood at 100%; in assay [2] it was 0%; in assay [3], 31.9%. In addition, the IC50 with HCT-15 worked out at 750 nM; with DU-145 it was 1200 nM; with HeLa, 1170 nM; with T47D, 1200 nM.

Consider `Oc1cccc(-c2cc(-c3cccc(Cl)c3)nc3c2Cc2ccc(O)cc2-3)c1`, for which the figures for the inhibition in assay [1], in assay [2] and in assay [3] were 90.5%, 1.5% and 14.3%, respectively. In addition, the IC50 in the assay with HCT-15 stood at 840 nM; in the assay on DU-145 it was 3280 nM; in the assay on HeLa, 5440 nM; in the assay on T47D, 1370 nM.

Take `Oc1ccc(-c2cc(-c3cccc(Cl)c3)nc3c2Cc2c(O)cccc2-3)cc1`: the figures for the inhibition in assay [1], in assay [2] and in assay [3] were 72.8%, 1.2% and 36.9%, respectively. For the same molecule, the IC50 in the assay on HCT-15 was 1840 nM; in the assay with DU-145, 220 nM; with HeLa it was 3560 nM; with T47D, 620 nM.

For `Oc1cccc(-c2cc(-c3cccc(F)c3)nc3c2Cc2c(O)cccc2-3)c1`, the inhibition is 43.2% in assay [1], 9.8% in assay [2] and 5.6% in assay [3]. Besides, the IC50 came to 4900 nM in the assay with HCT-15, 2370 nM in the assay with DU-145, 7040 nM with HeLa and 890 nM in the assay with T47D.

For the molecule `Oc1ccc2c(c1)-c1nc(-c3ccc(Cl)cc3)cc(-c3ccccc3O)c1C2`, the inhibition was 86.6% in assay [1], 8% in assay [2] and 25.7% in assay [3]. The IC50 in the assay with HCT-15 was determined as 1780 nM; in the assay with DU-145, 490 nM; in the assay on HeLa it was 4610 nM; in the assay on T47D, 720 nM.

Turning to `Oc1ccccc1-c1cc(-c2cccc(F)c2)nc2c1Cc1c(O)cccc1-2`, the inhibition was 80.7% in assay [1], 0% in assay [2] and 4.8% in assay [3]. The half-inhibitory concentration (IC50) is 2350 nM in the assay with HCT-15, 3940 nM in the assay with DU-145, 3920 nM in the assay with HeLa and 1250 nM with T47D.

On to `Oc1cccc(-c2cc(-c3cccc(C(F)(F)F)c3)nc3c2Cc2c(O)cccc2-3)c1`, for which the values for the inhibition in assay [1], in assay [2] and in assay [3] were 67.3%, 5.6% and 40.5%, respectively. The IC50 in the assay with HCT-15 was found to be 2690 nM; with DU-145, 1620 nM; with HeLa it was 4170 nM; in the assay on T47D it was 1910 nM.

Consider `Oc1cccc(-c2cc(-c3ccc(F)cc3)nc3c2Cc2cc(O)ccc2-3)c1`, for which the values for the inhibition in assay [1], in assay [2] and in assay [3] were 65.1%, 22.3% and 28.7%, respectively. The IC50 in the assay with HCT-15 was 1920 nM; in the assay on DU-145 it was 2940 nM; with HeLa, 3740 nM; in the assay with T47D it was 1720 nM.

In the case of `Oc1cccc(-c2cc(-c3ccccc3Cl)nc3c2Cc2cccc(O)c2-3)c1`, the inhibition in assay [1] was determined as 89.6%; in assay [2] it was 6.3%; in assay [3], 10.9%. The half-inhibitory concentration (IC50) amounted to 3820 nM in the assay on HCT-15, 240 nM with DU-145, 5250 nM with HeLa and 120 nM with T47D.
